In PMC9977398, “Next-generation membrane-active glycopeptide antibiotics that also inhibit bacterial cell division” (Chemical Science, 2023):

How the values were obtained:
[1] = tested on: carbapenem-resistant A. baumannii; experiment: Murine chronic burn-wound infection model; type: in vivo, mice; conditions: 30 mg kg^−1 topically for 5 days; untreated 8 log CFU g^−1
Experimental: Fig. 6 (A) Propensity of vancomycin and VanQAmC10 to induce resistance in MRSA upon serial exposure to sub-MIC concentrations; (B) (i) experimental design for in vivo efficacy study in a murine thigh infection model, (ii) in vivo efficacy of VanQAmC10 and vancomycin against the multidrug-resistant methicillin-resistant S. aureus (MRSA) (n = 3/dose). Antibiotics were administered intraperitoneally twice at 12 h intervals at a dose of 12 mg kg^−1. (C) (i) Experimental design for in vivo efficacy study in murine burn wound infection model, (ii) in vivo efficacy of VanQAmC10 and colistin against the carbapenem-resistant A. baumannii (n = 5/dose, 1 mouse died in untreated control). VanQAmC10 and colistin were treated topically at 30 mg kg^−1 for 5 days (‘***’ indicates p < 0.0001, ‘**’ indicates p < 0.001, ‘*’ p < 0.05, p = 0.08 (n.s.) for VanQAmC10 with respect to vancomycin).
Further, the efficacy of VanQAmC10 (8) was tested in a chronic burn-wound infection model of A. baumannii.[40] Chronic burn wounds on the back of mice were infected with A. baumannii. […] Infected mice were treated with 30 mg kg^−1 of VanQAmC10 and colistin for five days consecutively. The bacterial load in the untreated group increased to 8 log CFU g^−1 six days post-infection. […] The use of colistin is however limited due to its toxicity and bacteria easily develop resistance to it. […]

[2] = tested on: GFP-FtsI expressing E. coli; set-up: method as in PMID 19995973; conditions: known inhibitor of FtsI; 22 μM in Fig. 5C; cited from earlier work

Compound	lower bacterial load as compared to the untreated mice [1] [log CFU g^−1]	phenotype and localization of GFP-FtsI [2]
colistin [reference compound]	4.8	–
CC1=C(C(=O)O)N2C(=O)[C@@H](NC(=O)[C@H](N)c3ccccc3)[C@H]2SC1 [Cephalexin]	–	filamentous phenotype with mislocalized GFP-FtsI protein
